These results are taken from patent publication US11208412B2 (DAEGU-GYEONGBUK MEDICAL INNOVATION FOUNDATION, priority 2017, dated 2021).

Holding throughout (experiment): Kinase selectivity, DiscoverX scanMAX Kinase assay panel (% control)
What all share (format): binding

Experiment [1] has as its target T1, kinases of the scanMAX Kinase assay panel (Homo sapiens, UniProt Q02779).
T1 construct: purchased DiscoverX Co. (contract measurement) scanMAX Kinase assay panel
Conditions: MLK2; 1 uM. Summed up: (§1)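 A 1 uM DMSO solution of compound was applied across the panel kinases, and results were expressed as % control relative to DMSO (100%) and a positive control (0%).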

Experiment [2] deals with T2, kinases of the scanMAX Kinase assay panel (Homo sapiens, UniProt P17948).
T2 construct: purchased DiscoverX Co. (contract measurement) scanMAX Kinase assay panel
Conditions: FLT1; 1 uM. Summed up: as §1

The target of experiment [3] is T3, kinases of the scanMAX Kinase assay panel (Homo sapiens, UniProt O95382).
T3 construct: purchased DiscoverX Co. (contract measurement) scanMAX Kinase assay panel
T3 sequence (O95382 1-1288): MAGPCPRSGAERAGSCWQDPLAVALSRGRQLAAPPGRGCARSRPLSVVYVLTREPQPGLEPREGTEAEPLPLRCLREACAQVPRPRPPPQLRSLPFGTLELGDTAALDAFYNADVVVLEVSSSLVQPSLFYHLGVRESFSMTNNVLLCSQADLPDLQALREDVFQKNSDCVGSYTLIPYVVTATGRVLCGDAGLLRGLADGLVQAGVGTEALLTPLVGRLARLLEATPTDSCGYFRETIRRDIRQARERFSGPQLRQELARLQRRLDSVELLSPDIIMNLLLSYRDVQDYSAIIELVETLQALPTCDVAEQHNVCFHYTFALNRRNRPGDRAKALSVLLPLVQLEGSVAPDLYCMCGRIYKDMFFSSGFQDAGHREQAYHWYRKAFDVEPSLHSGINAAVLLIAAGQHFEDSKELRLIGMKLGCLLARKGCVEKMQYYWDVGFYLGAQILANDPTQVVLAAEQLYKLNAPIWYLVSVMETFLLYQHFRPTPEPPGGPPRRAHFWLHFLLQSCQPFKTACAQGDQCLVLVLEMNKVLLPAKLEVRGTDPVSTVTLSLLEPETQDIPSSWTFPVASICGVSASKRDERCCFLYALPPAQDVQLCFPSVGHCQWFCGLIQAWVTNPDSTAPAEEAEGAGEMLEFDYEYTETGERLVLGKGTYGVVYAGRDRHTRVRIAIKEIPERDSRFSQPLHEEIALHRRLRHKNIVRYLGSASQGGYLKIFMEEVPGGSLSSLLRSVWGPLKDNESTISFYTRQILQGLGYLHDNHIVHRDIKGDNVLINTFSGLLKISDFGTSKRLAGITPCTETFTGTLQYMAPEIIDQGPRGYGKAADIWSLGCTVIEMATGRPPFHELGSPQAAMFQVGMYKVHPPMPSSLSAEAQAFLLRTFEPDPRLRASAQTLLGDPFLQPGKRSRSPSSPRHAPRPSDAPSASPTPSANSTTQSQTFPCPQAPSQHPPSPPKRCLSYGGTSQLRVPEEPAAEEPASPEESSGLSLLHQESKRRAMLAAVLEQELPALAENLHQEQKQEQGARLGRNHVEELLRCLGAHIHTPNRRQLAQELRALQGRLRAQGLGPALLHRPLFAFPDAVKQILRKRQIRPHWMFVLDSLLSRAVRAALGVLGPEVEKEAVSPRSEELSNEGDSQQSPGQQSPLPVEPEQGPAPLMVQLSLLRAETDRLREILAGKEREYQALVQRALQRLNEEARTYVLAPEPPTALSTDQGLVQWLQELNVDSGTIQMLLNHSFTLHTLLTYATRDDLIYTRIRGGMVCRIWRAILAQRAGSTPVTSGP
Particulars: ASK2; 1 uM. An outline of the steps:
as §1

The target of experiment [4] is T4, kinases of the scanMAX Kinase assay panel (Homo sapiens, UniProt P54646).
T4 construct: purchased DiscoverX Co. (contract measurement) scanMAX Kinase assay panel
Conditions: AMPK-alpha2; 1 uM. An outline of the steps:
as §1

Experiment [5] has as its target T5, kinases of the scanMAX Kinase assay panel (Homo sapiens, UniProt Q9P0L2).
T5 construct: purchased DiscoverX Co. (contract measurement) scanMAX Kinase assay panel
Conditions: MARK1; 1 uM. An outline of the steps: as §1

Experiment [6] has as its target T6, kinases of the scanMAX Kinase assay panel (Homo sapiens, UniProt Q9UF33).
T6 construct: purchased DiscoverX Co. (contract measurement) scanMAX Kinase assay panel
T6 sequence (Q9UF33 23-1036): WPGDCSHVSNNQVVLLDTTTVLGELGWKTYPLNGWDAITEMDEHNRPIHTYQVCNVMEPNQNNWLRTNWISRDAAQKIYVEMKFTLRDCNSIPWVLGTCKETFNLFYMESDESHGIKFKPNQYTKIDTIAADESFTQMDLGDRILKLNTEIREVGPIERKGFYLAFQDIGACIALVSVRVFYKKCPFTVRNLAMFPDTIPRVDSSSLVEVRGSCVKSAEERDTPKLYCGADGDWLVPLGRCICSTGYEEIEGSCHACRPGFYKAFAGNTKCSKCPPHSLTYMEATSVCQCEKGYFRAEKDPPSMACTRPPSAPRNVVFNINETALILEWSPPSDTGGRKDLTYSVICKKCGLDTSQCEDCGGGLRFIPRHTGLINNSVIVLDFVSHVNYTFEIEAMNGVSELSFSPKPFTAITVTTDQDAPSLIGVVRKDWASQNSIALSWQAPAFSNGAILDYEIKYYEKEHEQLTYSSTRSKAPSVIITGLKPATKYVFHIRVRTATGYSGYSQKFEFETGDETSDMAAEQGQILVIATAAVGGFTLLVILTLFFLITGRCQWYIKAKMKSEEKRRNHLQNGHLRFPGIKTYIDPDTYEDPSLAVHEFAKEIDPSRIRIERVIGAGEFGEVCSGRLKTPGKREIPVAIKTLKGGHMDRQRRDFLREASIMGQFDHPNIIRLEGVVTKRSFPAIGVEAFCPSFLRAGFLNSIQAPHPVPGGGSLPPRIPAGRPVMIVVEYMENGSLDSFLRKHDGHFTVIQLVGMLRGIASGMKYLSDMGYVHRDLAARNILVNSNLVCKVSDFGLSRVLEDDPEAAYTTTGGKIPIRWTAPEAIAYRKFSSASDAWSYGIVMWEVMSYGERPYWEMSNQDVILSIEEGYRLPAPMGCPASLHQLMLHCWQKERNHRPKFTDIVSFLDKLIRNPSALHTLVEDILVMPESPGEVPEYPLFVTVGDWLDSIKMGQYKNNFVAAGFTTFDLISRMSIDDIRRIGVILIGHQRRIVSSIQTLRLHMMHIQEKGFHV
Particulars: EPHA6; 1 uM. An outline of the steps:
as §1

The target of experiment [7] is T7, kinases of the scanMAX Kinase assay panel (Homo sapiens, UniProt O94921).
T7 construct: purchased DiscoverX Co. (contract measurement) scanMAX Kinase assay panel
Conditions: PFTK1; 1 uM. An outline of the steps:
as §1

T5 sequence (Q9P0L2 whole entry): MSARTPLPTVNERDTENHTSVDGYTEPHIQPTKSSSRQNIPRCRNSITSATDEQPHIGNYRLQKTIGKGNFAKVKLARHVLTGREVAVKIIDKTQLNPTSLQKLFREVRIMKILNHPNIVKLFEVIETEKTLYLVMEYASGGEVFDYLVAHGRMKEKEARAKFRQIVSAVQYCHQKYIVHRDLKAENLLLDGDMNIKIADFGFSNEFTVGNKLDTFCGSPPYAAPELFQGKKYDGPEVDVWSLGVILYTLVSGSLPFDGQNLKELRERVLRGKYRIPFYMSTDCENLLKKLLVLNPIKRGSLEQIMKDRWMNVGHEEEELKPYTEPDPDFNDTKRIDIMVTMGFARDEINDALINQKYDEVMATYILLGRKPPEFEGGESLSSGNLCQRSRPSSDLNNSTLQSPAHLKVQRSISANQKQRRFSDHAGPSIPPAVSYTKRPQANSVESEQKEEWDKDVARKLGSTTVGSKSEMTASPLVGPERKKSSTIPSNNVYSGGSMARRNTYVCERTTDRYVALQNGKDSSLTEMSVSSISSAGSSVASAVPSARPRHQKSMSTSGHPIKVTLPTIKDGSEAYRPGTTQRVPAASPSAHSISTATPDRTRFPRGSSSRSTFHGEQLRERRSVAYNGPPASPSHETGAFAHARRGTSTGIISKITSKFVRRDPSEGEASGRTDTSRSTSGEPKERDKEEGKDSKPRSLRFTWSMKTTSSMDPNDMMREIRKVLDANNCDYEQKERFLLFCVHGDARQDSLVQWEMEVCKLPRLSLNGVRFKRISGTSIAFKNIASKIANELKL
T7 sequence (O94921 whole entry): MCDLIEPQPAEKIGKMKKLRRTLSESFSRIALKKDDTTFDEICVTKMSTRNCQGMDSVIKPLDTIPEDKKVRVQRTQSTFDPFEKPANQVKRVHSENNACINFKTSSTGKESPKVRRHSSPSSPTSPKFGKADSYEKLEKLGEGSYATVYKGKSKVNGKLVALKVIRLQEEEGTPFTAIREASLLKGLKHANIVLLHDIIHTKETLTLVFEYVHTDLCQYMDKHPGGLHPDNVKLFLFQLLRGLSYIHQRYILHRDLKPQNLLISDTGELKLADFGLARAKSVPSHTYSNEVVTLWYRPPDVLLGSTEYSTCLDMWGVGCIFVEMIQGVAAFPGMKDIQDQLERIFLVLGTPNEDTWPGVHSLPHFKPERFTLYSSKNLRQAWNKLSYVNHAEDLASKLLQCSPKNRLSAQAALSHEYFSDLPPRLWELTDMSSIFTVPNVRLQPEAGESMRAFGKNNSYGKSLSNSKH
T2 sequence (P17948 27-1338): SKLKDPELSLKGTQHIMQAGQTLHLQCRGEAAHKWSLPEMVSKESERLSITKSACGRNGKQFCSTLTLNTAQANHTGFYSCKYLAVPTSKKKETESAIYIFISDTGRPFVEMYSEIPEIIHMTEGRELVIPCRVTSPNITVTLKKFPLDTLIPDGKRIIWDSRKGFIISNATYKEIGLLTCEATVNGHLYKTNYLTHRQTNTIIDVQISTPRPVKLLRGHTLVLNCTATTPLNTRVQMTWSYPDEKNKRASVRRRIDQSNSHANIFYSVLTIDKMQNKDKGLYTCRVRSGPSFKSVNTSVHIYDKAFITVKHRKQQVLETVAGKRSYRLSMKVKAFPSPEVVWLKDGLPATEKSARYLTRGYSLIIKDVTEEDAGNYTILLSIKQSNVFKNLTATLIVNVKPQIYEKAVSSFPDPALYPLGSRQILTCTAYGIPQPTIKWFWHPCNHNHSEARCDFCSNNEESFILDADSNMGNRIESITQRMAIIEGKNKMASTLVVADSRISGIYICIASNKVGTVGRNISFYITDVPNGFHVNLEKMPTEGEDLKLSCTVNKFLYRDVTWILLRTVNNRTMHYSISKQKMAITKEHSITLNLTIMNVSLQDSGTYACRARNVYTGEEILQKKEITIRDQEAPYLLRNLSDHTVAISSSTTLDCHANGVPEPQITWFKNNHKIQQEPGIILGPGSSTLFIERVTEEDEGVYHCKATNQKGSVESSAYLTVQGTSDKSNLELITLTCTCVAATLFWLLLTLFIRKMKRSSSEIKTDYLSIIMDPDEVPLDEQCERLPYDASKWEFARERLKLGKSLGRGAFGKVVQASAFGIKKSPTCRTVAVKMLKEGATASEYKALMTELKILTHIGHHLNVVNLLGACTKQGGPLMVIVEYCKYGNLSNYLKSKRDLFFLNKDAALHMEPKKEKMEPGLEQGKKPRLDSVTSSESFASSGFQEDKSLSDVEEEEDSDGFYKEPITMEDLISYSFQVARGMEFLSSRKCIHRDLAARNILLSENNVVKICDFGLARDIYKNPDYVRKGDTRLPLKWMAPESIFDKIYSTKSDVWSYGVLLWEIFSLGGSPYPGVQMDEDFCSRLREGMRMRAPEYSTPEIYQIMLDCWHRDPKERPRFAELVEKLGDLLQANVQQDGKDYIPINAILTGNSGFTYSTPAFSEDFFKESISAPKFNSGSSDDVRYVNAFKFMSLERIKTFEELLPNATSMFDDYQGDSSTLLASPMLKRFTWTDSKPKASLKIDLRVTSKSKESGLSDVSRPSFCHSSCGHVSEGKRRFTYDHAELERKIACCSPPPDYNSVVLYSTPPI
T1 sequence (Q02779 whole entry): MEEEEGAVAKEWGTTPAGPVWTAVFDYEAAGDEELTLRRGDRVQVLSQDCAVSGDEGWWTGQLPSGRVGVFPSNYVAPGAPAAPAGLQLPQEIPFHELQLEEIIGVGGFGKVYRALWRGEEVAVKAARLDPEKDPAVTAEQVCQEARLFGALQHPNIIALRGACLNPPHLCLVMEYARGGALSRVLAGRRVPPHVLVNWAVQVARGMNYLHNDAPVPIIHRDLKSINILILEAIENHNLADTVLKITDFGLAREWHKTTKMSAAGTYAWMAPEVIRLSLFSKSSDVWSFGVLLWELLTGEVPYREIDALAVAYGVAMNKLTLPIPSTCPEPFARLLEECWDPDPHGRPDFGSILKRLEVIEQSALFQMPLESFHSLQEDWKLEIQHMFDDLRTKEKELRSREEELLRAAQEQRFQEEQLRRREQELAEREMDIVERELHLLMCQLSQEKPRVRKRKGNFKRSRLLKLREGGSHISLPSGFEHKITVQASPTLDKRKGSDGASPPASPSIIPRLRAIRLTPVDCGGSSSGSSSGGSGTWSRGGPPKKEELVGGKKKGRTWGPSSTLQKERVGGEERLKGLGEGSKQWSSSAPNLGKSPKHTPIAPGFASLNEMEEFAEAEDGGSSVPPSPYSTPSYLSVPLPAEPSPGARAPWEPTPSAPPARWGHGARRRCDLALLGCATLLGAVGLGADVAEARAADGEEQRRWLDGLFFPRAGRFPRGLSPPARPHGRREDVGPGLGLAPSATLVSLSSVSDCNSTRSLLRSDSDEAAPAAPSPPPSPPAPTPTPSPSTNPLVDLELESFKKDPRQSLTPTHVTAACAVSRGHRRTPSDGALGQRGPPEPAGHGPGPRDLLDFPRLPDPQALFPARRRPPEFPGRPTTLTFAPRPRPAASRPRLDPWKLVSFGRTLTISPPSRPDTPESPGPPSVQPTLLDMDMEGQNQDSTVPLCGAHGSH
T4 sequence (P54646 whole entry): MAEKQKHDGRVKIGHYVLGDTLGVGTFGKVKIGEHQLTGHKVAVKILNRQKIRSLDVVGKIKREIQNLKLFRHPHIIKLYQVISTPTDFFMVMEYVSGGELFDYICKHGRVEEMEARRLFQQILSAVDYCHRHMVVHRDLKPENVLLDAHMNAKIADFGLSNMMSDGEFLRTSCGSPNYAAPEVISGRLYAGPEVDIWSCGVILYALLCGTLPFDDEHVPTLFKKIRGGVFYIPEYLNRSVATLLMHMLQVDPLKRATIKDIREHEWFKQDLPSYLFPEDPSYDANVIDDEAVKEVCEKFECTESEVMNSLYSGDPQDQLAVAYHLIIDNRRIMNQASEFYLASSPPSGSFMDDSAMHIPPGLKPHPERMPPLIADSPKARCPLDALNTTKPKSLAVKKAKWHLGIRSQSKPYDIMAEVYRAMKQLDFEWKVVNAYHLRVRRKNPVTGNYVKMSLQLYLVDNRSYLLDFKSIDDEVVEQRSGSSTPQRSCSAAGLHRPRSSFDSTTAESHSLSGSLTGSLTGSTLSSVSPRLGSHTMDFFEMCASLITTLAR

Regarding `CNc1nc(Nc2ccc(C(=O)N3CCOCC3)cc2OC)nc2[nH]cc(C#N)c12` [Example 1, 2-((2-methoxy-4-(morpholine-4-carbonyl)phenyl)amino)-4-(methylamino)-7H-pyrrolo[2,3-d]pyrimidine-5-carbonitrile], the remaining binding at 1 µM turned out to be 90% in experiment [1]; 99% in experiment [2]; 56% in experiment [3]; 85% in experiment [4]; 91% in experiment [5]; 93% in experiment [6]. This compound also showed a remaining binding at 1 µM in experiment [7] of 97%.
Regarding `CC1(Nc2nc(Nc3cnn([C@H]4CCN(C5COC5)C[C@@H]4F)c3Cl)nc3[nH]cc(C#N)c23)CC1` [Example 52, 2-((5-chloro-1-((3S,4S)-3-fluoro-1-(oxetane-3-yl)piperidine-4-yl)-1H-pyrazole-4-yl)amino)((1-methylcyclopropyl)amino)-7H-pyrrolo[2,3-d]pyrimidine-5-carbonitrile], the remaining binding at 1 µM came to 4.4% in experiment [1]; 6.2% in experiment [2]; 11% in experiment [3]; 9.9% in experiment [4]; 36% in experiment [5]; 43% in experiment [6]. In experiment [7], this compound returned a remaining binding at 1 µM of 100%.
Turning to `CCNc1nc(Nc2ccc(C(=O)N3CCC(N4CCOCC4)CC3)cc2OC)nc2[nH]cc(C(F)(F)F)c12` [Example 104, (4-((4-(ethylamino)-5-(trifluoromethyl)-7H-pyrrolo[2,3-d]pyrimidine-2-yl)amino)-3-methoxyphenyl)(4-morpholinopiperidine-1-yl)methanone], the remaining binding at 1 µM in experiment [1] stood at 96%; in experiment [2], 100%; in experiment [3], 92%; in experiment [4], 100%; in experiment [5], 100%; in experiment [6], 100%. This compound also yielded a remaining binding at 1 µM in experiment [7] of 96%.
